Data published in PMC9841524, “Structure-Based Rational Design of Small α-Helical Peptides with Broad-Spectrum Activity against Multidrug-Resistant Pathogens” (Journal of Medicinal Chemistry, 2022).
Read-outs that look alike come from different tables or passages of the source. Where no end group is shown, it is not given here.

Columns and labels:
[1] = test system: E. coli (ATCC 25922); conditions: broth microdilution (CLSI), CAMHB, 37 °C, 24 h
Description: (§1) Description of the characteristics and growth conditions of various bacterial strains used in the study are provided in the Supporting Information (Table S3). Antibacterial susceptibility testing was carried out using a standard microtiter dilution method recommended by the clinical and laboratory standard institute (CLSI) and measured as a minimum inhibitory concentration (MIC), the lowest peptide concentration that inhibited bacterial growth. Briefly, the overnight grown cultures in the recommended broth for each bacterial strain were diluted in cation-adjusted Mueller Hinton Broth (CAMHB) to give an inoculum of 10^6 colony-forming units (CFU)/mL. A 2-fold serially diluted test peptide solution (100 μL) was added to the microtiter plates. After adding bacterial suspension (100 μL), the plates were incubated at 37 °C for 24 h, and the MICs were determined. The same protocol was used to determine the MICs in the presence of salts and serum except using the media supplemented with various cationic salts (150 mM NaCl, 4.5 mM KCl, 6 mM NH4Cl, 1 mM MgCl2, and 2 mM CaCl2) or 25% FBS. The data was acquired from three independent assays performed in triplicate.
(§2) The bacterial strains employed in this study were obtained from the American Type Culture Collection (ATCC). Each strain was propagated as recommended by the ATCC, and each strain was stored as a frozen glycerol stock at -80°C. A bacterial colony was grown on the appropriate agar as indicated in Table S1 and was used to inoculate the appropriate broth. The culture was incubated at the appropriate conditions, as mentioned in Table S1. Following the incubation, the culture was diluted to an optical density 625 nm (OD625) of 0.1 in cation adjusted Mueller Hinton Broth (CAMHB), which is equivalent to 1 × 10^8 CFU/mL. The culture was further diluted to 1 × 10^6 CFU/mL, which was used to conduct the MIC determination assay. For the S. pneumoniae strains, CAMHB + 2.5% lysed horse blood was required for the assay. The strains with their […]
(§3) Table S3. Description of the characteristics and growth conditions of various bacterial strains

[2] = test system: MRSA (ATCC BAA-1556); conditions: broth microdilution (CLSI), CAMHB, 37 °C, 24 h
Description: as §1, §2, §3

[3] = test system: P. aeruginosa (ATCC 27883); experiment: MIC, standard microtiter dilution (CLSI); format: cell-based, Pseudomonas aeruginosa; conditions: broth microdilution (CLSI), CAMHB, 37 °C, 24 h
Description: as §1, §2, §3

[4] = test system: human red blood cells (hRBCs); experiment: Hemolytic assay; format: cell-based; conditions: 2 h, 37 °C
Description: The hemolytic activity of all peptides (1a–8d) was determined using hRBC. The assay was conducted by adding 75 μL of 2-fold serially diluted peptides to 75 μL of hRBC suspension (4% in PBS). The plates were incubated for 2 h at 37 °C without agitation. In order to determine the hemolysis at each tested concentration of peptides, the plate was centrifuged, and 100 μL of the supernatant was transferred to another 96-well plate to determine hemoglobin release spectrophotometrically at 567 nm. Percent hemolysis was calculated by the following formula [drawing 1] where A represents the absorbance of the peptide sample at 567 nm and A0 and At represent zero percent and 100% hemolysis determined in phosphate buffer saline and 1% Triton X-100, respectively.

[5] = test system: S. aureus (ATCC 29213); experiment: MIC, standard microtiter dilution (CLSI); format: cell-based; conditions: broth microdilution (CLSI), CAMHB, 37 °C, 24 h
Description: as §1, §2, §3

[6] = test system: K. pneumoniae (ATCCBAA-1705); experiment: MIC, standard microtiter dilution (CLSI); format: cell-based, Klebsiella pneumoniae; conditions: broth microdilution (CLSI), CAMHB, 37 °C, 24 h
Description: as §1, §2, §3

[7] = 10^6 CFU/mL, highest MIC of three independent experiments in triplicate
[8] = hRBC suspension 4% in PBS, hemoglobin release at 567 nm, 1% Triton X-100 = 100%
[9] = value in parentheses (μM), hRBC 4% in PBS, 567 nm

Substance	MIC, E. coli (ATCC 25922) [1, 7]	MIC, E. coli (ATCC 25922) ([1]; value in parentheses (μM))	MIC, MRSA (ATCC BAA-1556) [2, 7]	MIC, MRSA (ATCC BAA-1556) ([2]; value in parentheses (μM))	MIC, P. aeruginosa (ATCC 27883) [3, 7]	MIC, P. aeruginosa (ATCC 27883) ([3]; value in parentheses (μM))	HC50 (concentration at which 50% hemolysis was observed) [4, 8]	HC50 (concentration at which 50% hemolysis was observed) [4, 9]	MIC, S. aureus (ATCC 29213) [5, 7]	MIC, S. aureus (ATCC 29213) ([5]; value in parentheses (μM))	MIC, K. pneumoniae (ATCCBAA-1705) [6, 7]	MIC, K. pneumoniae (ATCCBAA-1705) ([6]; value in parentheses (μM))
ARRWWRRW-NH2 [2e]	> 100 µg/mL	> 78.65 µM	100 µg/mL	> 78.65 µM	> 100 µg/mL	> 78.65 µM	> 500 µg/mL	> 393.23 µM	100 µg/mL	78.65 µM	> 100 µg/mL	> 78.65 µM
AWWRRAWRR-NH2 [3f]	> 100 µg/mL	> 74.48 µM	> 100 µg/mL	> 74.48 µM	> 100 µg/mL	> 74.48 µM	> 500 µg/mL	> 372.42 µM	> 100 µg/mL	> 74.48 µM	> 100 µg/mL	> 74.48 µM
Ac-RWIRRWIRWWR-NH2 [5e]	100 µg/mL	55.21 µM	50 µg/mL	27.61 µM	50 µg/mL	27.61 µM	60 µg/mL	33.13 µM	50 µg/mL	27.61 µM	100 µg/mL	55.21 µM
Ac-RWLRRWLRWWR-NH2 [5f]	50 µg/mL	27.61 µM	12.5 µg/mL	6.90 µM	25 µg/mL	13.80 µM	65 µg/mL	35.89 µM	12.5 µg/mL	6.90 µM	50 µg/mL	27.61 µM
H-AAWRRWWRRA-NH2 [4h]	> 100 µg/mL	> 70.74 µM	> 100 µg/mL	> 70.74 µM	> 100 µg/mL	> 70.74 µM	> 500 µg/mL	> 353.69 µM	> 100 µg/mL	> 70.74 µM	> 100 µg/mL	> 70.74 µM
H-RAWRRAWRAW-NH2 [4a]	> 100 µg/mL	> 70.74 µM	> 100 µg/mL	> 70.74 µM	> 100 µg/mL	> 70.74 µM	> 500 µg/mL	> 353.69 µM	> 100 µg/mL	> 70.74 µM	> 100 µg/mL	> 70.74 µM
H-RAWRRWARAW-NH2 [4d]	> 100 µg/mL	> 70.74 µM	> 100 µg/mL	> 70.74 µM	> 100 µg/mL	> 70.74 µM	> 500 µg/mL	> 353.69 µM	> 100 µg/mL	> 70.74 µM	> 100 µg/mL	> 70.74 µM
H-RAWRRWWARA-NH2 [4g]	> 100 µg/mL	> 70.74 µM	> 100 µg/mL	> 70.74 µM	> 100 µg/mL	> 70.74 µM	> 500 µg/mL	> 353.69 µM	> 100 µg/mL	> 70.74 µM	> 100 µg/mL	> 70.74 µM
H-RWWRRWR-NH2 [1e]	> 100 µg/mL	> 83.30 µM	100 µg/mL	83.30 µM	> 100 µg/mL	> 83.30 µM	> 500 µg/mL	> 416.52 µM	100 µg/mL	83.30 µM	> 100 µg/mL	> 83.30 µM
RAARRWARWWR-NH2 [5a]	> 100 µg/mL	> 63.70 µM	100 µg/mL	63.70 µM	> 100 µg/mL	> 63.70 µM	> 500 µg/mL	> 318.50 µM	100 µg/mL	63.70 µM	> 100 µg/mL	> 63.70 µM
RAWRRWWRA-NH2 [3b]	> 100 µg/mL	> 74.48 µM	> 100 µg/mL	> 74.48 µM	> 100 µg/mL	> 74.48 µM	> 500 µg/mL	> 372.42 µM	> 100 µg/mL	> 74.48 µM	> 100 µg/mL	> 74.48 µM
RAWRRWWRAA-NH2 [4b]	> 100 µg/mL	> 70.74 µM	> 100 µg/mL	> 70.74 µM	> 100 µg/mL	> 70.74 µM	> 500 µg/mL	> 353.69 µM	> 100 µg/mL	> 70.74 µM	> 100 µg/mL	> 70.74 µM
RRWRRWW-NH2 [1d]	> 100 µg/mL	> 83.30 µM	100 µg/mL	83.30 µM	> 100 µg/mL	> 83.30 µM	> 500 µg/mL	> 416.52 µM	100 µg/mL	83.30 µM	> 100 µg/mL	> 83.30 µM
